# Assays:
# P-gp = biological target: T1, P-gp (Homo sapiens, UniProt P08183); assay: P-gp activity, Calcein-AM assay in MDCK-MDR1 cells; format: cell-based; details: read-out: P-gp Activity EC50 ± SEM
# T1 construct: expressed in transfected cells; host or cells: MDCK-MDR1
# Method: According to a previously reported procedure, MDCK-MDR1 cell lines (50,000 cells per well) were seeded into black CulturePlate 96/wells plate with […] medium and grown overnight to confluence. Aliquots (100 µL) of tested compounds in culture medium, at scalar concentrations ranging from 0,1 to 100 µM, were added to each well. The plate was incubated at 37 °C for 30 min, Calcein-AM in phosphate buffered saline (PBS, […]) was added to each well at a final concentration of […], and the plate was incubated for 30 min. The plate was washed 3 times with […] ice cold PBS, Saline buffer ([…]) was added to each well and the plate was read by a PerkinElmer Victor3 spectrofluorimeter at excitation and emission wavelengths of 485 nm and 535 nm, respectively. Under these conditions, calcein cell accumulation in the absence and in the presence of tested compounds was evaluated, and a fluorescence basal level was estimated by untreated cells. In treated wells, the increase of fluorescence with respect to the basal level was measured, EC50 values were determined by fitting the fluorescence increase percentage versus log[dose] with GraphPad Prism Software 5,0 (GraphPad Software, Inc,: San Diego, CA).
# MCF7 and A549 cells = assay: Whole cell ROS, DCFDA-AM probe; format: cell-based, human; details: MCF7 and A549, 2 h, 50 µM
# Method: Intramitochondrial reactive oxygen species (ROS) were measured using the MitoSOX fluorescent probe (Invitrogen ThermoScientific, # M36008), according to the manufacturer’s instructions. For total ROS, cells were incubated with 5 µmol/L of 5-(and-6)-chlorometyl-20,70-dichlorodihydro-fluorescein diacetate-acetoxymethyl ester (DCFDA-AM, Sigma, #21,884), as described by Riganti et al. 2015 [21]. The results are expressed as nmoles/mg mitochondrial or cellular proteins, respectively.
# sigma-2 receptors = sigma-2 receptors (Homo sapiens, UniProt Q5BJF2); details: read-out: Sigma-2 Affinity Ki; cited from earlier work
# Chain of sigma-2 receptors (Q5BJF2 whole entry): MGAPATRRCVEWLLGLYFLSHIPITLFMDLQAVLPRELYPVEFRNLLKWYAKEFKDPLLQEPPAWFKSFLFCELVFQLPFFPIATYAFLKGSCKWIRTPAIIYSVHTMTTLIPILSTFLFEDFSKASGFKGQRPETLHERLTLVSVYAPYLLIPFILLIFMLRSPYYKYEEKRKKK
# BEAS-2B = assay: Cell viability, MTT assay at 48 h; format: cell-based; details: Homo sapiens, read-out: EC50 ± SEM, normal cells BEAS-2B
# Method: (§1) Human MCF7 breast adenocarcinoma (#HTB-22) and human A549 carcinoma (#CCL-85) cell lines, non-tumor human breast (MCF10A, #CRL-10317) and lung (BEAS-2B, #CRL-9482) cells were obtained from American Type Culture Collection (ATCC, Bethesda, MD). MCF7 cells were cultured in DMEM medium (Gibco Thermo Scientific, Waltham, MA; #10,565,018), A549 in HAM’s F12 medium (Gibco Thermo Scientific; #11,765,054), and BEAS-2B in RPMI-1640 medium (Gibco Thermo Scientific; # 61,870,010), all supplemented with 10% v/v fetal bovine serum (FBS; Sigma, St. Louis, MO; #F4135) and 1% v/v penicillin–streptomycin (Sigma; #P4458). MCF10A cells were cultured in DMEM/F12 medium (Gibco Thermo Scientific; #31,331,028) supplemented with 5% v/v horse serum (Sigma; #H1270) and 1% v/v penicillin–streptomycin, 20 ng/mL epidermal growth factor (Sigma, #E4127), 10 µg/mL insulin (Sigma, #I3536), […] hydrocortisone (Sigma, #H0888), 100 ng/mL cholera toxin (Sigma, #C8052). Cells were kept in a humidified incubator at 37 °C with 5% CO2.
# (§2) Cell growth was determined using the MTT assay at 48 h. On day 1, 25,000 cells/well were seeded into 96-well plates in a volume of 100 μL. On day 2, the various drug concentrations (1 μM–100 μM) were added. In all experiments, the various drug solvents (EtOH, Sigma, # E7148; DMSO, Sigma, # D8418) were added to each control to evaluate possible cytotoxicity of the solvent. After the established incubation time with drugs (48 h), MTT (0.5 mg/mL, Sigma # M2003) was added to each well, and after 3–4 h incubation at 37 °C, the supernatant was removed. Formazan crystals were solubilized using 100 μl of DMSO/EtOH (1:1) and absorbance values at 570 and 630 nm were determined on the microplate reader Victor 3 from PerkinElmer Life Sciences (Waltham, MA).
# A549 = assay: Cell viability, MTT assay at 48 h; format: cell-based; details: Homo sapiens, A549; MTT, 48 h; read-out: EC50 ± SEM, tumor cells A549
# Method: as §1, §2
# MCF7 = assay: Cell viability, MTT assay at 48 h; format: cell-based; details: Homo sapiens, MCF7; MTT, 48 h; read-out: EC50 ± SEM, tumor cells MCF7
# Method: as §1, §2
# MCF10A = assay: Cell viability, MTT assay at 48 h; format: cell-based; details: Homo sapiens, MCF-10A, read-out: EC50 ± SEM, normal cells MCF10A
# Method: as §1, §2
# caspase 3 in MCF7 cells = assay: Caspase 3 activity, fluorimetric; format: cell-based, human; details: MCF7, 2 h, 50 µM
# Method: (§3) Activation of caspase 3, caspase 7 and caspase 9 was measured using the Caspase 3/7 Fluorescence Assay kit (Cayman Chemical, Ann Arbor, MI; #10,009,135) and the Caspase 9 fluorimetric assay kit (Enzo Life Science, Roma, Italy; #ALX-850-224). The results were expressed as nmoles of the hydrolyzed substrate of each caspase/mg cellular proteins, according to a previously set titration curve.
# caspase 3 in A549 cells = assay: Caspase 3 activity, fluorimetric; format: cell-based, human; details: A549, 2 h, 50 µM
# Method: as §3
# T1 sequence (P08183 whole entry): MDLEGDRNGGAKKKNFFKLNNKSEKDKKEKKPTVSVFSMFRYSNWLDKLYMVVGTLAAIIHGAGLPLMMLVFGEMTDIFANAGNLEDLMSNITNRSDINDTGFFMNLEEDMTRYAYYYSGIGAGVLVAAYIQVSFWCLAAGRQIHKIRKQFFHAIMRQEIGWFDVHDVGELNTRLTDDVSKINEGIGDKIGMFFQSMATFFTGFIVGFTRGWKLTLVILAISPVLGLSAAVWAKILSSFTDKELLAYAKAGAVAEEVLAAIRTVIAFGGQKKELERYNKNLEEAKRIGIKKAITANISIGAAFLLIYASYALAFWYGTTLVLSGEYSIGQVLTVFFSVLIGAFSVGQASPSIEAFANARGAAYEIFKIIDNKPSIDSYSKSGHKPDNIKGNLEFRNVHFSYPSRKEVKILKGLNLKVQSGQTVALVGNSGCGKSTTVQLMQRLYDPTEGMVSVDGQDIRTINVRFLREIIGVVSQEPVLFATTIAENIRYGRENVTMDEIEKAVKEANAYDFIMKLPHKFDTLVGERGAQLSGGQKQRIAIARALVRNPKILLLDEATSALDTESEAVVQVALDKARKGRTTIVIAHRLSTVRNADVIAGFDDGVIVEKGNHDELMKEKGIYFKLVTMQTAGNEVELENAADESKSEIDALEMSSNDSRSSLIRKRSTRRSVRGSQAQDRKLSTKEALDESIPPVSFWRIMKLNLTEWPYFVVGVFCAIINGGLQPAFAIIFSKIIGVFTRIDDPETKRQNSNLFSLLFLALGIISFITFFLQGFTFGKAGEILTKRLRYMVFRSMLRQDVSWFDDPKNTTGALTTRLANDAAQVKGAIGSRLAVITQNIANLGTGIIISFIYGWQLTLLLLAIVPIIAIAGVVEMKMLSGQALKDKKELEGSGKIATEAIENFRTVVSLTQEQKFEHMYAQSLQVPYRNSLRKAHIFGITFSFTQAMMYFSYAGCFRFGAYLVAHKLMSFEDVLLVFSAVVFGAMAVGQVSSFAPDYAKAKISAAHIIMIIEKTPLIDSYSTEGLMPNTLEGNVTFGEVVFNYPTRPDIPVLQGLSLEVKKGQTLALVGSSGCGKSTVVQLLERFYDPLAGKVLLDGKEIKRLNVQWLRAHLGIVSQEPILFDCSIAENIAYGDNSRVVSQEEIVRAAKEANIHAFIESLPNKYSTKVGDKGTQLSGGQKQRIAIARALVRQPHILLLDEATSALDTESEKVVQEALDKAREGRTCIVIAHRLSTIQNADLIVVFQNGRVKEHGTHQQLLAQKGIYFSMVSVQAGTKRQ
smiles,measurement,setting,value
"CN(C)C(=S)N/N=C1\C(=O)N(CCCCN2CCC3(CC2)OCc2ccccc23)c2ccccc21 [FA4, (Z)-2-(1-(4-(3H-spiro[isobenzofuran-1,4′-piperidine]-1′-yl)butyl)-2-oxoindolin-3-ylidene)-N,N-dimethylhydrazinecarbothioamide]",EC50,P-gp,3800 nM
same,ROS levels in whole cells (DCFDA-AM),MCF7 and A549 cells,higher
same,Ki,sigma-2 receptors,15.8 nM
same,EC50,BEAS-2B,4470 ± 1100 nM
same,EC50,A549,1840 ± 400 nM
same,EC50,MCF7,1530 ± 300 nM
same,EC50,MCF10A,4310 ± 700 nM
same,Caspase 3 activation,caspase 3 in MCF7 cells,most potent inducer of caspase 3 in both cell lines
same,Caspase 3 activation,caspase 3 in A549 cells,most potent inducer of caspase 3 in both cell lines

# From PMC10661773, “Cytotoxic pathways activated by multifunctional thiosemicarbazones targeting sigma-2 receptors in breast and lung carcinoma cells” (Pharmacological Reports, 2023)
